# Laboratory results from patent publication US8697628B2, “Methods of using AMPD2 inhibitors for the treatment of fatty liver, obesity and diabetes” (The Regents of the University of Colorado, a body corporate, priority 2010, dated 2014).
# Key:
# HepG2 cells [1] = assay: Fructose-stimulated HepG2 cells treated with metformin or AICAR; assay type: cell-based, human; conditions: for rise in intracellular triglycerides in response to fructose: HepG2, fructose 5 mM; for fall in enoyl CoA hydratase-1 (ECH-1) levels (defect in fat oxidation): HepG2, fructose 5 mM for 72 hrs, densitometry of western blot
# [2] = test system: AMPD isolated from squirrel liver (AMPD2); assay: AMP deaminase activity by ammonia production; assay type: biochemical
# Description: AMP deaminase activity was determined by estimating the production of ammonia by a modification of the method described by Chaney and Marbach. See, Chaney et al., Clin Chem., 1962, 8, 130-132; Ito et al., J Biochem., 1988, 103, 259-262; and Sims et al., Neurobiol Aging., 1998, 19, 385-391. Briefly, the reaction mixture consisted of 25 mM sodium citrate, pH 6.0, 50 mM potassium chloride, and different concentration of AMP. The enzyme reaction was initiated by the addition of the enzyme solution and incubated at 37° C. for 15 min. The reaction was stopped with the addition of the phenol/hypochlorite reagents: Reagent A (100 mM phenol and 0.050 g/L sodium nitroprusside in H2O) was added, followed by reagent B (125 mM sodium hydroxide, 200 mM dibasic sodium phosphate, and 0.1% sodium hypochlorite in H2O) and incubated for 30 min at 25° C. The absorbance of the samples was measured at 625 nm with a spectrophotometer. To determine the absolute specific activity of ammonia production (micromoles ammonia/min), a calibration curve was determined in the range of 5 μM to 1 mM of ammonia.
# Using the procedure above, various AMPD2 inhibitors were assayed. […] For this assay AMPD isolated from squirrel liver was used, which only expresses AMPD2 and not the other AMPD isoforms.
# AMP deaminase [3] = conditions: cited from earlier work
# adenosine deaminase [4] = target: T1, adenosine deaminase (Homo sapiens, UniProt P00813); conditions: cited from earlier work
# T1 sequence (P00813 1-363): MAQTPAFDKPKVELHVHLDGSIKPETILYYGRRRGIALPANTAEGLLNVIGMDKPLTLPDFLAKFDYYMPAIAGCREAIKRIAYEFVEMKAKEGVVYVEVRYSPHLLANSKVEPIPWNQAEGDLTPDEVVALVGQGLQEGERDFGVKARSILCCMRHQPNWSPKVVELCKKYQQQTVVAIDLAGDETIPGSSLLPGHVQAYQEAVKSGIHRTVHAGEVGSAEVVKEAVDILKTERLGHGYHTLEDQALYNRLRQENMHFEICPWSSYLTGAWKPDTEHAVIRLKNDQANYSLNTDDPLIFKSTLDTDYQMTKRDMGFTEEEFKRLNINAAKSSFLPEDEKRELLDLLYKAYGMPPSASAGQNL
# AMP deaminase [5] = conditions: Ki as low as; cited from earlier work
# [6] = test system: purified human cardiac AMP deaminase; conditions: purified enzyme; cited from earlier work
# [7] = test system: AMP deaminase in isolated cardiomyoctes; conditions: isolated cardiomyocytes; cited from earlier work
# HepG2 cells [8] = conditions: with IMP
# adenosine deaminase [9] = target: T1, adenosine deaminase; conditions: cited from earlier work; remark: listed apart in the source
# AMPD2 = target: T2, AMPD2 (Homo sapiens, UniProt Q01433); assay: AMPD2 regulation by fructose-1-phosphate; assay type: biochemical; conditions: FIG. 15
# T2 sequence (Q01433 1-825): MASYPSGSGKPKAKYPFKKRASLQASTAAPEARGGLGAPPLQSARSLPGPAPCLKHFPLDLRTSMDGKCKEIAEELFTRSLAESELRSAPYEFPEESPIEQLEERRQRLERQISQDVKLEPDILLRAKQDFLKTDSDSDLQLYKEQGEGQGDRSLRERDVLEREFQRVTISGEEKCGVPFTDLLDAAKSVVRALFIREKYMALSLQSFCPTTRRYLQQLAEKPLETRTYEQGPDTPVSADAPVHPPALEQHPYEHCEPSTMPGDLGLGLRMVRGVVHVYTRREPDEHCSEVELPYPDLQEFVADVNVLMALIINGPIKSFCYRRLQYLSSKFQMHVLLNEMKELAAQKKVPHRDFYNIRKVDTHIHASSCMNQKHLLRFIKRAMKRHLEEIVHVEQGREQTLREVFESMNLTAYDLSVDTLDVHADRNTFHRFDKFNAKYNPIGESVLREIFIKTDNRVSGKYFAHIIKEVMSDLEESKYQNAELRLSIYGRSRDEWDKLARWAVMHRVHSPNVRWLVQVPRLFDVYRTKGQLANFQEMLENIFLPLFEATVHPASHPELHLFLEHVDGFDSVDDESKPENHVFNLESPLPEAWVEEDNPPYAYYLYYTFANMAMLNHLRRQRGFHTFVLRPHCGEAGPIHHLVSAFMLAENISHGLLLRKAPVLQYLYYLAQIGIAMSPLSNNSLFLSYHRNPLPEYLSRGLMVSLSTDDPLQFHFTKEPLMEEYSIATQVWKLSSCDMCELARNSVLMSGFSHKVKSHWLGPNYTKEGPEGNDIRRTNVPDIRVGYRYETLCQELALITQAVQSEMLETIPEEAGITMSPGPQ
# Excerpt: Fructokinase uses ATP to phosphorylate fructose to fructose-1-phosphate leading to a reduction of ATP and generation of AMP, leading to the activation of AMPD2.
# AMPD2 mRNA = assay: Silencing of AMPD2 with shRNA in HepG2 cells; assay type: cell-based, human
# Excerpt: An shRNA for AMPD2 was employed to silence human hepatic cells (HepG2). (FIGS. 3 and 4) The silencing vector pSM2-AMPD2 (V2HS—172668, Open Biosystems) incorporates a 22-base shRNAmir trigger designed to mimic a natural microRNA primary transcript. The target sequence is specific for human AMPD2 and has been selected based on thermodynamic criteria for optimal small RNA performance. The specific sequence is 5′-[…]-3′(SEQ ID NO: 1).
# The immortalized human hepatocytes cell line, HepG2, was transfected with the silencing vector pSM2-AMPD2 using Lipofectamine LTX Plus (Invitrogen) as described by the manufacturer (FIG. 4). Briefly, cell cultures were grown to 90-95% confluence in normal growth media and in 24-well plates. Lipid-DNA complexes were prepared as per recommended protocols using growth media without serum. 100 μl of the lipid-DNA solution was added per well of attached cells and incubated for 4 hrs at 37° C. Wells were then diluted with 1.5 ml of normal growth media and incubated for an additional 24 hrs prior to addition of selective media containing 1 μg/mL Puromycin antibiotic. After 7 days, stable transfectants (clones) were selected with glass cloning rings, replated and a second colony selection was performed to provide a clean clone for analysis. Validation of AMPD2 gene knock down was performed by harvesting protein and performing a Western blot for protein expression. Clone #5 was subsequently used for the experiments and was designated as sAMPD2.
# A key enzyme in Beta fatty acid oxidation, enoyl CoA hydratase-1 (ECH-1), was stimulated in control cells as well as fructose treated cells in which AMPD2 had been silenced. The inhibition of AMPD2 by sAMPD2 was accompanied by an upregulation of phosphorylated AMPkinase (Thr172) in both unstimulated and fructose stimulated hepatocytes, whereas total AMPK was not altered.
# The stimulation of fat oxidation in AMPD2 knocked down hepatocytes was confirmed by measuring β hydroxybutyrate, a fat oxidation product (FIG. 5B).
# The stimulation of phosphorylated AMP kinase in human hepatocytes (HepG2 cells) by silencing AMPD2 with shRNA as shown in FIG. 5A led to […] of target genes as noted by Western blot (FIG. 6A). For example, the phosphorylated form of Acetyl CoA Carboxylase (pACC) which is involved in triglyceride synthesis was induced by silencing AMPD2 in both unstimulated and fructose stimulated cells. […] Importantly, these changes blocked the triglyceride accumulation in HepG2 cells in response to fructose (FIG. 6B).
# Silencing AMPD2 prevented the upregulation of KHK in response to fructose.
# [10] = test system: fructose induced fatty liver; assay: Fructose induced fatty liver and hypertriglyceridemia in rats; assay type: in vivo, Male Sprague Dawley rats
# Excerpt: Fructose only and control diet rats also received daily i.p injections of vehicle. At the end of two weeks rats were sacrificed. […] FIG. 12A. […] FIG. 12B.
# [11] = unstimulated and fructose stimulated hepatocytes
compound,measurement,setting,value
CN(C)C(=N)N=C(N)N [metformin],rise in intracellular triglycerides in response to fructose,HepG2 cells [1],prevented the rise
same,fall in enoyl CoA hydratase-1 (ECH-1) levels (defect in fat oxidation),HepG2 cells [1],reversed
"NC(=O)c1ncn([C@@H]2O[C@H](CO)[C@@H](O)[C@H]2O)c1N [AICAR, aminoimidazole carboxamide ribonucleotide]",AMPD2 activity,[2]; FIG. 8A,inhibits AMPD2 activity in a dose dependent manner
same,rise in intracellular triglycerides in response to fructose,HepG2 cells [1],prevented the rise
same,fall in enoyl CoA hydratase-1 (ECH-1) levels (defect in fat oxidation),HepG2 cells [1],reversed
OC[C@H]1O[C@@H](n2cnc3c2N=CNC[C@H]3O)[C@H](O)[C@@H]1O [Coformycin],AMP deaminase inhibition,AMP deaminase [3],inhibits
"3-[2-(3-carboxy-4-bromo-5,6,7,8-tetrahydronaphthyl)ethyl]-3,6,7,8-tetrahydroimidazo[4,5-d][1,3]diazepin-8-ol [compound 24b]",activity for adenosine deaminase,adenosine deaminase [4],minimal activity
same,Ki,AMP deaminase [5],2 nM
same,concentration found to inhibit,[6],0.5 µM
same,concentration found to inhibit the enzyme,[7],0.5 mM
Oc1ncnc2[nH]ncc12 [allopurinol],IMP-stimulated triglyceride accumulation,HepG2 cells [8],partially blocked
same,rescue of the IMP-induced reduction in ECoAH,HepG2 cells [8],cannot fully rescue
OC[C@H]1O[C@@H](c2n[nH]c3cncnc23)[C@H](O)[C@@H]1O [deaminoformycin],adenosine deaminase inhibition,adenosine deaminase [9],block
same,AMP deaminase inhibition,AMP deaminase [3],block
O=C(COP(=O)(O)O)[C@@H](O)[C@H](O)[C@H](O)CO [fructose-1-phosphate],AMPD2 activity,AMPD2,increases
OC[C@H]1C[C@@H](n2cnc3cncnc32)[C@H](O)[C@@H]1O [carbocyclic nebularine],adenosine deaminase inhibition,adenosine deaminase [9],block
same,AMP deaminase inhibition,AMP deaminase [3],block
"sAMPD2: silencing vector pSM2-AMPD2 with 22-base shRNAmir specific for human AMPD2, 5′-ACCTGGGAATCTGCTCATTGTT-3′; stable HepG2 clone #5 (the letters are possibly those of the target site)",triglyceride accumulation in HepG2 cells in response to fructose,AMPD2 mRNA; FIG. 6B,blocked
same,AMPD2 expression,"AMPD2 mRNA; control HepG2 cells, Western blot",reduced
same,enoyl CoA hydratase-1 (ECH-1),AMPD2 mRNA; control cells as well as fructose treated cells,stimulated
same,increased AMPD2 expression,"AMPD2 mRNA; fructose treated hepatocytes, Western blot",blocked
same,phosphorylated form of Acetyl CoA Carboxylase (pACC),"AMPD2 mRNA; unstimulated and fructose stimulated cells, Western blot",induced
same,phosphorylated AMPkinase (Thr172),AMPD2 mRNA; [11],upregulation
same,total AMPK,AMPD2 mRNA; [11],not altered
same,phosphorylated form of glycogen synthase (pGS),AMPD2 mRNA; unstimulated conditions and in the presence of fructose,induced
"OC[C@H]1O[C@@H](n2cnc3c2NC=NC[C@H]3O)C[C@@H]1O [pentostatin, deoxycoformycin]",rise in fasting serum triglycerides in response to fructose,"[10]; at two weeks, 0.1 mg/kg daily i.p.",significantly reduced the rise
same,rise in serum triglycerides in response to a bolus of fructose,"[10]; at two weeks, fructose 2 g/kg body weight by gavage",blocked the rise
same,"fatty liver (lipid deposits, Oil Red O stain)","[10]; fructose 20% in water two weeks, 0.1 mg/kg daily i.p.",largely prevented
same,inhibition of AMPD2 activity,[2]; in the presence of 2 mM AMP,64%
same,inhibition of AMPD2 activity,[2]; in the presence of 10 mM AMP,72%
same,AMP deaminase inhibition,AMP deaminase [3],block
